Key:
[1] = Field trials: peroxide oxidation of wood preserving wastewater, then carbon adsorption
Experimental: In field trials 900 liter samples of wood preserving wastewater of known Chemical Oxygen Demand (COD) was treated as follows:
This antifoam agent was added because foaming was expected in view of the large volume of waste water being treated.
An amount of Fe^2+ (as 0.1M or 1M ferrous sulphate heptahydrate) equivalent to 5-7% of the total H2 O2 by weight was added with fast agitation. The pH was kept at 3-3.8 at a temperature of 40°±5° C.
The reaction was judged complete when the colour of the reaction mixture turned light yellow similar to that of a ferric ions solution (3-3.5 hrs.)
The catalyst was separated by co-precipitation with alum or poly electrolytes.

[2] = Effect of peroxide/penta weight ratios on the oxidation of pentachlorophenol; settings: Fe2+/H2O2 3%, pH 3.5
Experimental: a) Effect of peroxide/penta weight ratios on the oxidation of pentachlorophenol
Appropriate amounts of technical grade pentachlorophenol were dissolved in deionized water (the pH of which was kept at 8 to 9 with 5% NaOH solution) to yield solutions containing 19.0, 38.1, 66.6 and76.2 ppm pentachlorophenol.
100 ml of each of the above solutions was placed in each of four 100 ml beakers.
157.5 mg H2 O2 (≈0.42 ml of 35% solution) were added to each beaker to give peroxide/penta weight ratios of 82.7, 41.3, 27.6 and 20.7, respectively.
4.74 mg of Fe^2+ (≈0.85 ml of 0.1 molar solution of ferrous sulphate heptahydrate) were then added to give a constant Fe^2+ /H2 O2 weight ratio of 3% in each beaker.

In the case of `Oc1c(Cl)c(Cl)c(Cl)c(Cl)c1Cl` [Pentachlorophenol, pentachlorophenol], the “removed after oxidation followed by carbon adsorption” value ([1]; field trial) is reported as > 99.3%, the “removed after oxidation only” value ([1]; field trial) is reported as 92.60-98.75% and the “destruction levels of contaminants by oxidation” value ([1]; summary of process) is reported as ~99.9%. The PCP destruction ([2]; PCP 19.0 ppm, H2O2/PCP ratio 82.7) was 96.2%, the PCP destruction ([2]; PCP 38.1 ppm, H2O2/PCP ratio 41.3) was 98.2% and the PCP destruction ([2]; PCP 66.6 ppm, H2O2/PCP ratio 27.6) was 98.9%. For the same compound, the PCP destruction ([2]; PCP 76.2 ppm, H2O2/PCP ratio 20.7) was 95.9%.

From patent US5716528A, “Peroxide water treatment process” (Domtar Inc., priority 1995, dated 1998)
